Consider one compound from patent US20250019665A1, “SCALABLE BIOMANUFACTURING OF TUMOR ORGANOIDS” (The Board of Trustees of The University of Alabama, priority 2023, published 2025).

In one series the test system is U251. The note with it: U251 inoculated as single cells, BR2 bioreactor, 60 and 120 rpm, 5 days of culture, with vs without ROCKi.
The subject of a further series is GBO (U251). The series can be described thus: Live and dead cell staining of GBO. Format: cell-based. The note with it: GBO in bioreactor, live and dead cells stained. From the text:
Live and Dead Cell Analysis: Cells were stained with Live and Dead Cell Kit according to manufacturer's protocol (Abcam, ab115347). Sample images were acquired and analyzed using Nikon C2 Laser Scanning Confocal Microscope.

The test system of series [1] is SOX2 and CD44 expression in GBO. The series can be described thus: IHC of GSC markers SOX2 and CD44 in GBO, fluorescence intensity by CTCF. The format is cell-based. The note with it: GBO with vs without ROCKi. The method, then:
To further examine whether ROCKi maintained GSC stemness, the expression of GSC markers, SOX2 and CD44, were analyzed (FIG. 6B).
where A is the two-dimensional projected area, and p is perimeter. Images were acquired with 12-bit depth, and the raw files were analyzed using NIS-Elements Viewer (Nikon) and ImageJ (NIH). Fluorescence intensity was calculated by the corrected total cell fluorescence (CTCF).
Immunohistochemistry (IHC): GBOs were fixed using 4% paraformaldehyde (Alfa Acsar, J61899AK) overnight and dehydrated using ethanol followed by xylene. Dehydrated GBOs were embedded in paraffin. Paraffin-embedded GBOs were sectioned to 5 to 10 μm thickness. Deparaffinization was done by xylene followed by ethanol. Sectioned GBOs were rehydrated with water. 10 mM sodium citrate buffer with […] was formulated for antigen retrieval and adjusted to pH 6.0. Antigen retrieval was performed at 95° C. for ten minutes. Sectioned GBOs were stained with primary antibodies: CD133, SOX2, CD44, NOTCH1, DLL1, HIF-1α, CD31, CD34, CD144, CD146, α-SMA, NG2, GFAP, Map2, S100B, VEGFR, ZO1, and POU3f2, followed by secondary staining. Cell nuclei were counter stained by Hoechst 33342 (Invitrogen, H1399). Stained GBOs were mounted using ProLong Glass Antifade Mountant with NucBlue (Invitrogen, P36981) and imaged by Nikon C2 Laser Scanning Confocal Microscope.

The structures appear in SMILES notation.

In the case of `C[C@@H](N)[C@H]1CC[C@H](C(=O)Nc2ccncc2)CC1` [ROCKi, Y-27632], in the series on U251, the cell proliferation entry was “inhibited cell proliferation”. The apoptosis result in the series on GBO (U251) is given as “did not induce apoptosis”. For the same compound, the “expression levels of GSC markers SOX2 and CD44” value in series [1] was “not significantly different”.
